Where two headings read alike, the source gives them in different places.
Assays:
desmolase [1] = details: literature; cited from earlier work
[2] = CNS (sedative-hypnotic) activity; details: in vivo
desmolase [3] = target: T1, desmolase (Bos taurus, UniProt P00189); test: Desmolase inhibition, (26-^14C)-cholesterol as substrate (7 micromolar), mitochondrial fraction of bovine adrenal cortex; type: biochemical
T1 construct: The mitochondrial fraction of bovine adrenal cortex provided the source of desmolase; from tissue; host or cells: bovine adrenal cortex, mitochondrial fraction
T1 sequence (P00189 40-520): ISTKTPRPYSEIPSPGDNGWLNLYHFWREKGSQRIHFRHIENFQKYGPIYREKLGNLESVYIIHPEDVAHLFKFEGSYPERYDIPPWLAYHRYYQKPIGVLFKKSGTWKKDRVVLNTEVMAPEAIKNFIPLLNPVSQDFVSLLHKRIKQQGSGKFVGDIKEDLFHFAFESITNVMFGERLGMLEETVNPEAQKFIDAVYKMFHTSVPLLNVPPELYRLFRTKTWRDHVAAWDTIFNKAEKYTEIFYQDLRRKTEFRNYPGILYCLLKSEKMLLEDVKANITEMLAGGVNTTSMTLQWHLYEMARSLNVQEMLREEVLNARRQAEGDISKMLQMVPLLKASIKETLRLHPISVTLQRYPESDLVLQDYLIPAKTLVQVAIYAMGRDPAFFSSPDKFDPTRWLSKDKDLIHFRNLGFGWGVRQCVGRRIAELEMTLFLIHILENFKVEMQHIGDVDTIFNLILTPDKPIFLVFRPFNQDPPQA

aromatase [4] = target: T2, aromatase (Homo sapiens, UniProt P11511); test: Aromatase inhibition, (1,2-^3H) androstene-3,17-dione as substrate (0.38 micromolar), microsomal fraction of human placental tissue; type: biochemical; details: 0.38 micromolar (^3H) androstene-3,17-dione, 30° C., "None" = no inhibition; for IC50: read-out: IC50 Aromatase Androstenedione
T2 construct: Aromatase was obtained from the microsomal fraction of human placental tissue; from tissue; host or cells: human placenta, microsomal fraction
T2 sequence (P11511 1-503): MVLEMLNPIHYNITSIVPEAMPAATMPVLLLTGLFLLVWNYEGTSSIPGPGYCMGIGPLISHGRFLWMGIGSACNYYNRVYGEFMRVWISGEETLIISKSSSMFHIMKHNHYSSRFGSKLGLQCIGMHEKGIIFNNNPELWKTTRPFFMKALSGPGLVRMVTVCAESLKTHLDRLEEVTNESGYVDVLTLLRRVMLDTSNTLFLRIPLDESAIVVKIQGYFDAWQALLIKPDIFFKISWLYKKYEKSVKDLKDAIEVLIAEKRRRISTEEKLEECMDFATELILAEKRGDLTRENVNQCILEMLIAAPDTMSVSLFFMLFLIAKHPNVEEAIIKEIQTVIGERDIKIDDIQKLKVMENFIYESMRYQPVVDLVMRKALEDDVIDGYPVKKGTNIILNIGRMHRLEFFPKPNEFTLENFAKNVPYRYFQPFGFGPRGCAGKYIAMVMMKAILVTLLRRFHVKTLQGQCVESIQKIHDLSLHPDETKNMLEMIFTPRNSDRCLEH

aromatase [5] = target: T2, aromatase; test: Aromatase inhibition, (1,2-^3H) testosterone as substrate (1.5 micromolar), microsomal fraction of human placental tissue; type: biochemical; details: for IC50: 1.5 micromolar (^3H) testosterone; for IC50 / IC50 Aromatase Testosterone: 30° C., "None" = no inhibition; for IC50 Aromatase Testosterone: […] (^3H) testosterone; for aromatase inhibition (in words): substrate not stated
[6] = 7 micromolar (^14C) cholesterol, 30° C., "None" = no inhibition
[7] = 7 micromolar (^14C) cholesterol, 30° C., "None" = no inhibition, read-out: IC50 Desmolase

Row | IC50 Desmolase (desmolase [3]; [6]) | IC50 (aromatase [5]) [µM] | SMILES | also measured
1 |  |  | CCC1(c2ccc(N)cc2)CCC(=O)NC1=O (centres unmarked) [Aminoglutethimide] | inhibition of desmolase (desmolase [1]): also inhibits the enzyme desmolase
2 |  |  | O=C1CCC(CCC(F)(F)C(F)(F)C(F)(F)C(F)(F)C(F)(F)C(F)(F)F)(c2ccncc2)C(=O)N1 (centres unmarked) [R1=(CH2)2 (CF2)5 CF3, R2=H, reference compound] | IC50 Aromatase Androstenedione (aromatase [4]): none; IC50 (desmolase [3]): 93 µM; IC50 Aromatase Testosterone (aromatase [5]): none
3 |  |  | O=C1CCC(CCC(F)(F)C(F)(F)C(F)(F)C(F)(F)C(F)(F)C(F)(F)C(F)(F)C(F)(F)F)(c2ccncc2)C(=O)N1 (centres unmarked) [R1=(CH2)2 (CF2)7 CF3, R2=H, reference compound] | IC50 Aromatase Androstenedione (aromatase [4]): none; IC50 (desmolase [3]): 79 µM
4 | none | 2.9 | O=C1CCC(CCC(F)(F)F)(c2ccncc2)C(=O)N1 (centres unmarked) [R1=(CH2)2 CF3, R2=H] | IC50 (aromatase [4]): 7 µM
5 |  | 14 | CCC1(c2ccncc2)CCC(=O)N(CC(F)(F)F)C1=O (centres unmarked) [R1=C2 H5, R2=CH2 CF3] | IC50 (aromatase [4]): 31 µM; IC50 (desmolase [3]; [7]): > 350 µM
6 | none | 11 | CCC1(c2ccncc2)CCC(=O)N(CCC(F)(F)F)C1=O (centres unmarked) [R1=C2 H5, R2=CH2 CH2 CF3] | IC50 (aromatase [4]): 42 µM
7 | none |  | CCC1(c2ccncc2)CCC(=O)N(C)C1=O (centres unmarked) [R1=C2 H5, R2=CH3] | 
8 | none | 9 | CCC1(c2ccncc2)CCC(=O)N(CC2CCCCC2)C1=O (centres unmarked) [R1=C2 H5, R2=[drawing 7]] | 
9 |  |  | CCN1C(=O)CCC(CC)(c2ccncc2)C1=O (centres unmarked) [R1=C2 H5, R2=n-C2 H5, reference compound] | IC50 (desmolase [3]; [7]): 92 µM
10 | none |  | CCCN1C(=O)CCC(CC)(c2ccncc2)C1=O (centres unmarked) [R1=C2 H5, R2=n-C3 H7] | 
11 | none |  | CCCCN1C(=O)CCC(CC)(c2ccncc2)C1=O (centres unmarked) [R1=C2 H5, R2=n-C4 H9] | 
12 |  |  | CCCCCN1C(=O)CCC(CC)(c2ccncc2)C1=O (centres unmarked) [R1=C2 H5, R2=n-C5 H11] | IC50 (desmolase [3]; [7]): 209 µM
13 | none |  | CCCCCCN1C(=O)CCC(CC)(c2ccncc2)C1=O (centres unmarked) [R1=C2 H5, R2=n-C6 H13] | 
14 |  |  | CCCCCCCN1C(=O)CCC(CC)(c2ccncc2)C1=O (centres unmarked) [R1=C2 H5, R2=n-C7 H15] | IC50 (desmolase [3]; [7]): 210 µM
15 |  |  | CCCCCCCCN1C(=O)CCC(CC)(c2ccncc2)C1=O (centres unmarked) [R1=C2 H5, R2=n-C8 H17] | IC50 (desmolase [3]; [7]): 110 µM
16 |  |  | CCCCCCCCCN1C(=O)CCC(CC)(c2ccncc2)C1=O (centres unmarked) [R1=C2 H5, R2=n-C9 H19] | IC50 (desmolase [3]; [7]): 175 µM; aromatase inhibition (in words) (aromatase [5]): dramatic increase

Row | IC50 Desmolase (desmolase [3]; [6]) | IC50 (aromatase [5]) [µM] | SMILES | also measured
17 |  |  | CCCCCCCCCCN1C(=O)CCC(CC)(c2ccncc2)C1=O (centres unmarked) [R1=C2 H5, R2=n-C10 H21] | IC50 (desmolase [3]; [7]): 340 µM
18 | none | > 90 | CN1C(=O)CCC(C)(c2ccncc2)C1=O (centres unmarked) [R1=CH3, R2=CH3, reference compound] | 
19 | none |  | CC1(c2ccncc2)CCC(=O)NC1=O (centres unmarked) [R1=CH3, R2=H, reference compound] | 
20 | none |  | CCCC1(c2ccncc2)CCC(=O)NC1=O (centres unmarked) [R1=n-C3 H7, R2=H] | 
21 | none |  | CCCCC1(c2ccncc2)CCC(=O)NC1=O (centres unmarked) [R1=n-C4 H9, R2=H] | 
22 | none | 2.1 | CCCCN1C(=O)CCC(CCCC)(c2ccncc2)C1=O (centres unmarked) [R1=n-C4 H9, R2=n-C4 H9] | 
23 | none | 3.2 | CCCCCC1(c2ccncc2)CCC(=O)NC1=O (centres unmarked) [R1=n-C5 H11, R2=H] | 
24 | none | 3.8 | CCCCCCC1(c2ccncc2)CCC(=O)NC1=O (centres unmarked) [R1=n-C6 H13, R2=H] | 
25 | none | 2.1 | CCCCCCC1(c2ccncc2)CCC(=O)N(CC)C1=O (centres unmarked) [R1=n-C6 H13, R2=n-C2 H5] | 
26 | none | 2 | CCCCCCCC1(c2ccncc2)CCC(=O)NC1=O (centres unmarked) [R1=n-C7 H15, R2=H] | 
27 | none |  | CCCCCCCCC1(c2ccncc2)CCC(=O)NC1=O (centres unmarked) [R1=n-C8 H17, R2=H] | 
28 |  |  | CCCCCCCCC1(c2ccncc2)CCC(=O)N(CCCC)C1=O (centres unmarked) [R1=n-C8 H17, R2=n-C4 H9, reference compound] | IC50 (desmolase [3]; [7]): 106 µM; IC50 Aromatase Testosterone (aromatase [5]): none; aromatase inhibition (in words) (aromatase [5]): no aromatase inhibition
29 |  | 10 | CCCCCCCCC1(c2ccncc2)CCC(=O)N(CCCCCC)C1=O (centres unmarked) [R1=n-C8 H17, R2=n-C6 H13, reference compound] | desmolase inhibition (in words) (desmolase [3]): significant desmolase inhibition; IC50 (desmolase [3]; [7]): 73 µM
30 |  |  | CCCCCCCCN1C(=O)CCC(CCCCCCCC)(c2ccncc2)C1=O (centres unmarked) [R1=n-C8 H17, R2=n-C8 H17, reference compound] | IC50 (desmolase [3]; [7]): 169 µM; IC50 Aromatase Testosterone (aromatase [5]): none
31 | none |  | CCCCCCCCCC1(c2ccncc2)CCC(=O)NC1=O (centres unmarked) [R1=n-C9 H19, R2=H] | 

Row | SMILES | IC50 Desmolase (desmolase [3]; [6]) | IC50 (aromatase [5]) [µM] | also measured
32 | CCC1(c2ccncc2)CCC(=O)NC1=O (centres unmarked) [Pyridoglutethimide, 3-ethyl-3-(4-pyridyl)piperidine-2,6-dione] | none |  | CNS (sedative-hypnotic) activity [2]: little or no CNS (sedative-hypnotic) activity; inhibition of desmolase (desmolase [1]): not desmolase
33 | O=C1CCC(CCC(F)(F)C(F)(F)C(F)(F)F)(c2ccncc2)C(=O)N1 (centres unmarked) [R1=(CH2)2 (CF2)2 CF3, R2=H] | none | 18 | IC50 (aromatase [4]): 22 µM
34 | O=C1CCC(CCC(F)(F)C(F)(F)C(F)(F)C(F)(F)F)(c2ccncc2)C(=O)N1 (centres unmarked) [R1=(CH2)2 (CF2)3 CF3, R2=H, reference compound] | none | 18 | IC50 (aromatase [4]): 22 µM
35 | CCC1(c2ccncc2)CCC(=O)N(CCC(F)(F)C(F)(F)C(F)(F)F)C1=O (centres unmarked) [R1=C2 H5, R2=(CH2)2 (CF2)2 CF3] |  | 3 | IC50 (aromatase [4]): 15 µM; IC50 (desmolase [3]): 240 µM
36 | CCC1(c2ccncc2)CCC(=O)N(CCC(F)(F)C(F)(F)C(F)(F)C(F)(F)F)C1=O (centres unmarked) [R1=C2 H5, R2=(CH2)2 (CF2)3 CF3] |  | 9 | IC50 (aromatase [4]): 9 µM; IC50 (desmolase [3]): 120 µM
37 | CCC1(c2ccncc2)CCC(=O)N(CCC(F)(F)C(F)(F)C(F)(F)C(F)(F)C(F)(F)C(F)(F)F)C1=O (centres unmarked) [R1=C2 H5, R2=(CH2)2 (CF2)5 CF3] |  | 34 | IC50 (aromatase [4]): 23 µM; IC50 (desmolase [3]): 145 µM
38 | CCC1(c2ccncc2)CCC(=O)N(CCC(F)(F)C(F)(F)C(F)(F)C(F)(F)C(F)(F)C(F)(F)C(F)(F)C(F)(F)F)C1=O (centres unmarked) [R1=C2 H5, R2=(CH2)2 (CF2)7 CF3] |  | 15 | IC50 Aromatase Androstenedione (aromatase [4]): none; IC50 (desmolase [3]): 150 µM
39 | CCC1(c2ccncc2)CCC(=O)N(CC(F)(F)C(F)(F)C(F)(F)F)C1=O (centres unmarked) [R1=C2 H5, R2=CH2 (CF2)2 CF3] | none | 19 | IC50 (aromatase [4]): 106 µM

— patent US4668689A, “Glutarimide derivatives for treating oestrogen-dependent tumors” (National Research Development Corporation, priority 1984, dated 1987)
